What was measured:
[1] = test system: SU-DHL-4 cell line; assay: Cell proliferation and viability assay using SU-DHL-4 cell line (Cell Titer-Glo); format: cell-based; details: Homo sapiens, SU-DHL-4, 120 hours
Procedure: The following exemplary assay uses a DLBCL cell line, for example, the SU-DHL-4 cell line (Deutsche Sammlung von Mikroorganismen und Zellkulturen GmbH [DSMZ]: catalogue number ACC-495) at 120 hours post-treatment. The seeding density for SU-DHL-4 can be optimized to ensure assay linearity in 1536-well plates.
Increasing concentrations (0.5 nM to […]) of Compounds 1, 2, and 3 were each spotted in a 20-point dilution fashion (unevenly spaced data points) via an acoustic dispenser (EDC ATS-100) into an empty 1536-well plate. The DMSO concentration was kept constant for a final assay concentration of 0.1% DMSO. Prior to testing, SU-DHL-4 cells were grown in RPMI-1640 (Roswell Park Memorial Institute-1640) medium with 10% FBS (fetal bovine serum: HyClone) and expanded in culture flasks to provide sufficient amounts of starting material. Cells were then diluted to 500 cells per well in a 5 μL volume, and added directly to the compound-spotted 1536-well plates. Cells were allowed to grow for 120 hours in 5% CO2 at 37° C. At the time when exposure of cells to compound began (t0), initial viable cell number was assessed via Cell Titer-Glo® Luminescent Cell Viability Assay at a 1 vol: 2 vol ratio according to manufacturer's instructions (Promega Corporation, Madison, Wis.) by quantifying the level of luminescence generated by adenosine-5′-triphosphate (ATP) present in viable cells. After 120 hours, cell viability of the treated cells was assessed via Cell Titer-Glo© and read for luminescence. All growth inhibition curves were processed and evaluated using Activity Base (IDBS, Alameda, Calif.). Cell viability IC50 values were calculated using a four parameter logistic model (sigmoidal dose-response model): y=(A+((B−A)/(1+((C/x)^D)))) wherein: A=YMin B=YMax C=EC50 D=Hill slope IC50=the concentration of the compound when Y=50% of DMSO control Y=cell viability measured as luminescence unit, and x=concentration of compound.

[2] = test system: SUDHL-6 DLBCL xenograft tumors; assay: SUDHL-6 (DLBCL) xenograft model; format: in vivo, female SCID mice; details: rituximab 10 mg/kg intraperitoneally BIW, single agent
Procedure: (§1) Female 6- to 8-weeks-old CB17 SCID mice were obtained from Charles River Laboratories. Mice were housed in a barrier facility in micro-isolator cages at 10 animals per cage. Mice were fed with Harlan-Teklad LM-485 Mouse/Rat Sterilizable Diet and autoclaved water ad libitum and maintained on a 12 hours light-dark cycle. Animals were acclimatized to the animal housing facility for a period of 7 days before the beginning of the experiment. All animal studies were performed under protocols approved by Institutional Animal Care and Use Committees.
(§2) Suspensions of Compound 1 were pared in aqueous 0.5% Methyl Cellulose, 0.25% Tween 80 and 50 mM Citrate pH 3. […]
(§3) Tumor cells were injected subcutaneously in the flank region above the right hind legs of female CB17 SCID mice. […] Tumor volumes were determined before the initiation of treatment and were considered as the starting volumes. Tumors were measured twice a week for the duration of the study. The long and short axes of each tumor were measured using a digital caliper in millimeters. The tumor volumes were calculated using the formula: width^2×length/2. […]
(§4) Xenograft data are expressed as mean±SEM. […]
Xenograft study was conducted with female SCID mice bearing SUDHL-6 DLBCL xenograft tumors. […] Tumors were measured twice a week using calipers and tumor volumes were calculated using the formula of W^2×L/2. […]

[3] = test system: RL follicular lymphoma xenograft tumors; assay: RL (follicular lymphoma) xenograft model, alone and in combination with rituximab; format: in vivo, female SCID mice; details: rituximab 25 mg/kg intraperitoneally BIW, single agent
Procedure: as §1, §2, §3, §4
Xenograft study was conducted with female SCID mice bearing RL follicular lymphoma xenograft tumors. […] Tumors were measured twice a week using calipers and tumor volumes were calculated using the formula of W^2×L/2. […]

[4] = test system: WSU-DLCL2 DLBCL xenograft tumors; assay: WSU-DLCL2 (DLBCL) xenograft model; format: in vivo, female SCID mice; details: rituximab 10 mg/kg intraperitoneally BIW, single agent
Procedure: as §1
Suspensions of Compound 1 were pared in aqueous 0.5% Methyl Cellulose, 0.25% Tween 80 and 50 mM Citrate pH 3. The formulations were homogenized using a Teflon pestle and mortar (Potter-Elvehjem tissue grinder). For multiday studies, the compound was freshly formulated every day. Compound 1 and vehicle were administered by oral gavage. Rituximab was diluted in 0.9% saline and administered intraperitoneally.
Tumor cells were injected subcutaneously in the flank region above the right hind legs of female CB17 SCID mice. When the tumor volumes reach to approximately 200 mm^3, mice bearing tumors of 150-300 mm^3 were randomly assigned to receive oral doses of vehicle, Compound 1, rituximab or combination of Compound 1 (5 days on and 2 days off for 3 weeks) and rituximab (twice a week) for the duration of the study. Tumor volumes were determined before the initiation of treatment and were considered as the starting volumes. Tumors were measured twice a week for the duration of the study. The long and short axes of each tumor were measured using a digital caliper in millimeters. The tumor volumes were calculated using the formula: width^2×length/2. The tumor volumes were expressed in cubic millimeters (mm^3).
Xenograft data are expressed as mean±SEM. Statistical analyses were performed using GraphPad Prism. […]
Xenograft study was conducted with female SCID mice bearing WSU-DLCL2 DLBCL xenograft tumors. […] Tumors were measured twice a week using calipers and tumor volumes were calculated using the formula of W^2×L/2. […]

[5] = test system: OCI-LY10-Luc CNS DLBCL xenograft; assay: OCI-LY10-Luc CNS lymphoma xenograft model (intracranial); format: in vivo, Nude (nu/nu) mice; details: 30 mg/kg QD oral, 3 weeks
Procedure: Antitumor activity of Compound 1 was evaluated as a single agent in OCI-LY10-luc diffuse large B-cell lymphoma (DLBCL) xenografted intracranially into nude mice as a model for central nervous system (CNS) lymphoma.
CNS lymphoma study was conducted with OCI-LY-10 cells transfected with luciferase (OCI-LY-10-Luc). Nude (nu/nu) mice were inoculated intracranially into the right cerebral hemisphere of the brain with OCI-LY10-Luc cells. Following inoculation of animals, the tumors were allowed to grow for 5 days. On day 5 following tumor cell inoculation, the mice were imaged using IVIS100 imaging system. The mice having tumors with an average flux ranging between 1×10^7 and 2×10^7 photons/sec were pooled together and randomized into various treatment groups. Compound 1 was formulated in 0.5% Methyl Cellulose, 0.25% Tween 80 and 50 mM Citrate pH 3 (MCT) in water. The animals were orally administered vehicle (MCT) or Compound 1 once daily (QD) for 3 weeks. Doses of Compound 1 ranged between 3 and 30 mg/kg. The positive control pomalidomide (30 mg/kg, QD) formulated in aqueous 0.5% CMC and 0.25% Tween-80 was administered PO. The animals were imaged for bioluminescence once a week using IVIS100 imaging system and monitored for survival. Statistical analysis was performed using a log-rank test between Compound 1-treated and vehicle-treated control groups.

O=C1CC[C@@H](N2C(=O)c3cccc(NCc4ccc(CN5CC(N6CCOCC6)C5)cc4F)c3C2=O)C(=O)N1 [Compound 2, (R)-2-(2,6-dioxopiperidin-3-yl)-4-((2-fluoro-4-((3-morpholinoazetidin-1-yl)methyl)benzyl)amino)isoindoline-1,3-dione]
IC50 [1]: < 200 nM

O=C1CCC(N2C(=O)c3cccc(NCc4ccc(CN5CC(N6CCOCC6)C5)cc4F)c3C2=O)C(=O)N1 (stereo not shown) [Compound 3, 2-(2,6-dioxopiperidin-3-yl)-4-((2-fluoro-4-((3-morpholinoazetidin-1-yl)methyl)benzyl)amino)isoindoline-1,3-dione]
IC50 [1]: < 200 nM

Rituximab [reference compound]
tumor volume reduction [2]: 54% | tumor volume reduction [3]: 56% | tumor volume reduction [4]: 66%

Nc1cccc2c1C(=O)N(C1CCC(=O)NC1=O)C2=O (stereo not shown) [Pomalidomide, reference compound]
% BLI Inhibition on Day 26 ([5]; relative to vehicle control): 68.8% | Median Survival ([5]; vehicle 35 days): 50 days

— patent publication US11390617B2, “Methods of treating non-Hodgkin lymphoma using 2-(2,6-dioxopiperidin-3-yl)-4-((2-fluoro-4-((3-morpholinoazetidin-1-yl)methyl)benzyl)amino)isoindoline-1,3-dione” (Celgene Corporation, priority 2019, dated 2022)
